Test results: patent US20080221013A1, “Neurobiological compositions” (priority 2006, published 2008)
Read-outs that look alike come from different tables or passages of the source.

Assays:
[1] = system: nAChRs; assay: whole-cell patch clamp recordings of nicotine-induced currents in medial habenula neurons in brain slices; type: cell-based, mouse; details: for EC50: 250 ms nicotine pulse, 0.1 μM to 300 μM, read-out: EC50 of nicotine-induced current
[2] = system: striatum; details: drinking water from 8 months of age for 10 months
[3] = system: pain sensitivity; details: lynx1 null mutant mice vs wild-type
[4] = system: primary cortical cultures
Description: Cultured cells were then loaded with the Ca^2+ sensitive indicator fluo-3 and fluorescence measurements were obtained (FIG. 5A). […] Acute responses to nicotine were measured using fluorescence levels in real time.

[5] = system: seizure activity; details: lynx1 null mutant mice vs wt; single injection of nicotine
[6] = system: primary cortical cultures; remark: listed apart in the source
[7] = system: motor learning; details: 200 μg/ml nicotine in 2% saccharin
[8] = biological target: T1, alpha4beta2 nAChRs (Homo sapiens, UniProt P17787+P43681); assay: co-immunoprecipitation in transiently transfected HEK293 cells; type: binding; details: IP with nAChR antibodies, Western blot
T1 construct: expressed in transfected cells; host or cells: HEK293

[9] = biological target: T2, alph4beta2 nAChRs (Homo sapiens, UniProt P17787+P43681); assay: voltage-clamp recordings of xenopus oocytes heterologously expressing nAChR and lynx cRNA; type: cell-based; details: coexpressed with a4b2 nAChRs in oocytes, 1 mM ACh; for desensitization of ACh-evoked currents during agonist application: 20 sec; for fast time constant of desensitization / slow time constant of desensitization (plateau phase): two-exponential fit
T2 construct: expressed in transfected cells; host or cells: Xenopus oocytes injected with cRNA
Description: (§1) The inward currents were evoked by 20 sec periods of superfusion (horizontal calibration bar) with external saline containing 1 mM ACh. […] B and C. The differences in desensitization are shown with bar graphs. As described in (2), two exponentials equations were fitted to the desensitization currents during ACh application. Using these equations, fast (B) and slow (C) time constants were calculated and the average values of these constants for ACh responses are shown in B and C.
as §1, with “C).” for “C.”, “shown.” for “are shown in B and C.”

T1 sequence (P43681 29-627 limits assumed): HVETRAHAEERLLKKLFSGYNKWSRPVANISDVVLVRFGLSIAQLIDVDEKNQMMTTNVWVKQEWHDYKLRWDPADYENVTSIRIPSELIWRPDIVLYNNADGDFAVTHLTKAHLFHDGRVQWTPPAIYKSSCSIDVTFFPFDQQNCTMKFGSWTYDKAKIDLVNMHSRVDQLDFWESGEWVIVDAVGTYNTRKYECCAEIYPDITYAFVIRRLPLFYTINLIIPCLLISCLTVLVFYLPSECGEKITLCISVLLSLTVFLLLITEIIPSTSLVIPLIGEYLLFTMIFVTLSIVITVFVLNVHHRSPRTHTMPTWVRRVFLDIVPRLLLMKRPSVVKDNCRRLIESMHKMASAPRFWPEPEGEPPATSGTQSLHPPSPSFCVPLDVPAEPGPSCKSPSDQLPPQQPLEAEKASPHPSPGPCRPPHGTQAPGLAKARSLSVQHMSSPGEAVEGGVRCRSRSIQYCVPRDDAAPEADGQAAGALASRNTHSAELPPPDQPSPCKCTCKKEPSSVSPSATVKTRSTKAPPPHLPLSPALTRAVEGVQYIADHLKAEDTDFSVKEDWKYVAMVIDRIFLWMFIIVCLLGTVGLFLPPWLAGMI
T1 sequence (P17787 26-502): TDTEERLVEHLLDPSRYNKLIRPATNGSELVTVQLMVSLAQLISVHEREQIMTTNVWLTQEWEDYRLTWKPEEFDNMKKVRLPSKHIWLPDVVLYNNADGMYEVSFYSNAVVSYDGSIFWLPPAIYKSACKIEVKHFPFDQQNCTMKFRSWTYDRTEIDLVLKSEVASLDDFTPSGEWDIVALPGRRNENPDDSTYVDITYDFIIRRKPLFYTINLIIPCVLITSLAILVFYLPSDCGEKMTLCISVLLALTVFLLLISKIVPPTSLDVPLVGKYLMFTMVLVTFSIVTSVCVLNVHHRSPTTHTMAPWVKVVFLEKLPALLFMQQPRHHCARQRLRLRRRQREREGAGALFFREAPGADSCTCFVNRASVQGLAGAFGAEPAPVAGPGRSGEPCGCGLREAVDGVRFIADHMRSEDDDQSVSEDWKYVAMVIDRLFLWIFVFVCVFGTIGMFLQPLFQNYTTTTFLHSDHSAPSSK
T2 sequence (P43681 29-627 limits assumed): as the sequence (P43681 29-627 limits assumed) above
T2 sequence (P17787 26-502): as the sequence (P17787 26-502) above

CN1CCCC1c1cccnc1 (centres unmarked) [nicotine]
decrease of EC50 for nicotine on loss of lynx1 ([1]; lynx1 null mutant vs wild-type): […] | EC50 ([1]; lynx1−/− mice): […] | half-maximal response time (decay of nicotine response) ([1]; neurons from lynx1−/− mice): […] | EC50 ([1]; wild-type mice): […] | half-maximal response time (decay of nicotine response) ([1]; wild-type neurons): […] | vacuolation in the striatum, nicotine solution vs saccharin ([2]; lynx1−/− mice): significant increase in vacuolation | vacuolation in the striatum, nicotine/saccharin vs saccharin ([2]; wild-type mice): no significant differences in vacuolation | antinociceptive effect of nicotine, time on a hot-plate [3]: enhanced sensitivity | acute Ca2+ response, fluorescence in real time ([4]; lynx1−/− cultures): significant increase | increase in fluorescence (steady state Ca2+ levels) ([4]; lynx1−/− cultures, 10 μm nicotine): 2 fold | nicotine concentration sufficient for activation of nAChRs and elevation of Ca2+ levels ([4]; lynx1−/− cultures, dose-response): […] | acute Ca2+ response, fluorescence in real time ([4]; wild-type cultures): not | change in steady state Ca2+ levels (fluorescence) ([4]; wild-type cultures, 10 μm nicotine): did not result in a significant change | change in fluorescence in dose-response measurements ([4]; wild-type cultures, any of the concentrations tested): no change in fluorescence | nicotine induced seizures, seizure index (scale of 1-8) [5]: […] | neuroprotection against glutamate-mediated cell death ([6]; lynx1−/− neurons, nicotine pretreatment, glutamate): completely abolished | neuroprotection against glutamate-mediated cell death ([6]; wild-type neurons, 1 hour pretreatment of nicotine, 100 μM glutamate): protects wild-type neurons from cell death | rotarod performance relative to similarly treated wild-type mice ([7]; lynx1−/− mice, 2nd day of training): significant improvement in rotarod performance | rotarod performance vs saccharin-treated mice ([7]; wild-type mice, at least 6 weeks): this difference was not significant

CNC1(C)C2CCC(C2)C1(C)C (centres unmarked) [mecamylamine]
effect on nicotine-induced currents ([1]; nAChR antagonist, recovered during wash out): blocked

lynx3: lynx family polypeptide with modulatory capacity on nAChRs; mouse lynx3 (SEQ ID NO:7)
association with nAChRs in co-immunoprecipitation [8]: stable associations | desensitization of ACh-evoked currents during agonist application [9]: significantly faster desensitization | fast time constant of desensitization [9]: significantly faster | slow time constant of desensitization (plateau phase) [9]: remained the same

B1: lynx2: lynx family polypeptide related to lynx1; mouse lynx2 (SEQ ID NO:5) (protein, listed as Mus musculus)
chain: MWVLGIAATFCGLFWLPGLALQIQCYQCEEFQLNNDCSSPEFIVNCTVNVQDMCQKEVMEQSAGIMYRKSCASSAACLIASAGYQSFCSPGKLNSVCISCCNTPLCNGPRPKKRGSSASAIRPGLLTTLLFFHLALCLAHC
association with nAChRs in co-immunoprecipitation [8]: stable associations | desensitization of ACh-evoked currents during agonist application [9]: significantly faster desensitization | fast time constant of desensitization [9]: significantly faster | slow time constant of desensitization (plateau phase) [9]: remained the same

B2: ly6H: a lynx-related gene, a related family member, used as comparator (protein)
chain: LWCQDCTLANSSHCAPKQCQPTDTVCASVRITDPSSSRKDHSVNKMCASSCDFVKRHFFSDYLMGFINSGILKVDVDCCEKDLCN
association with nAChRs in co-immunoprecipitation [8]: not | desensitization of ACh-evoked currents during agonist application [9]: no effect on desensitization | fast time constant of desensitization [9]: unaffected | slow time constant of desensitization (plateau phase) [9]: unaffected
